Experimental data as given in ChEMBL document CHEMBL4376834, “Discovery of 4H-Chromen-4-one Derivatives as a New Class of Selective Rho Kinase (ROCK) Inhibitors, which Showed Potent Activity in ex Vivo Diabetic Retinopathy Models” (J Med Chem, 2019).

Experiments:
[1] = target: PI3-kinase p110-alpha/p85-alpha (Homo sapiens, UniProt P42336, H1047R); test: Inhibition of recombinant human full length PI3K p110alpha/p85alpha H1047R mutant using phosphatidylinositol 4,5-bisphosphate as substrate incubated for 40 mins in presence of [gamma33P]ATP by radiometric scintillation counting analysis
[2] = target: Receptor-interacting serine/threonine-protein kinase 2 (Homo sapiens, UniProt O43353); test: Inhibition of recombinant human RIPK2 (1 to 299 residues) using MBP as substrate incubated for 120 mins in presence of [gamma33P]ATP by radiometric scintillation counting analysis
[3] = target: Serine/threonine-protein kinase Nek7 (Homo sapiens, UniProt Q8TDX7); test: Inhibition of recombinant human NEK7 (2 to end residues) using FLAKSFGSPNRAYKK as substrate measured after 40 mins in presence of [gamma33P]ATP by radiometric scintillation counting analysis
[4] = target: Dual specificity protein kinase CLK3 (Homo sapiens, UniProt P49761); test: Inhibition of recombinant full length human CLK3 using ERMRPRKRQGSVR as substrate incubated 40 mins in presence of [gamma-33ATP] by radiometric scintillation counting analysis
[5] = target: Inhibitor of nuclear factor kappa-B kinase subunit alpha (Homo sapiens, UniProt O15111); test: Inhibition of recombinant full length human IKKalpha using peptide substrate after 40 mins by [gamma-33ATP]by radiometric scintillation counting analysis
[6] = target: Focal adhesion kinase 1 (Homo sapiens, UniProt Q05397); test: Inhibition of recombinant human FAK (411 to 686 residues) using EEEEYEEEEEEYY as substrate after 40 mins in presence of [gamma-33ATP] by radiometric scintillation counting analysis
[7] = target: Cyclin-dependent kinase 5/CDK5 activator 1 (Homo sapiens, UniProt Q00535); test: Inhibition of recombinant full length human CDK5/p25 using histone H1 as substrate incubated for 40 mins in presence of [gamma-33ATP] by radiometric scintillation counting analysis; assay type: protein-complex assay
[8] = target: Serine/threonine-protein kinase ULK1 (Homo sapiens, UniProt O75385); test: Inhibition of recombinant human ULK1 (1 to 314 residues) using casein as substrate incubated for 40 mins in presence of [gamma33P]ATP by radiometric scintillation counting analysis
[9] = target: PI3K p110 beta/p85 alpha (Homo sapiens, UniProt P42338); test: Inhibition of recombinant human full length PI3K p110beta/p85alpha using phosphatidylinositol-4, 5-bisphosphate as substrate incubated for 40 mins in presence of [gamma33P]ATP by radiometric scintillation counting analysis; assay type: protein-complex assay
[10] = target: Tyrosine-protein kinase HCK (Homo sapiens, UniProt P08631); test: Inhibition of human HCK recombinant (230 to 497 residues) using […] as substrate after 40 mins by [gamma-33ATP] radiometric assay
[11] = target: Mitogen-activated protein kinase kinase kinase 3 (Homo sapiens, UniProt Q99759); test: Inhibition of recombinant full length human MEKK3 using MBP as substrate incubated for 120 mins in presence of [gamma-33ATP by radiometric scintillation counting analysis
[12] = target: Serine/threonine-protein kinase PAK 1 (Homo sapiens, UniProt Q13153); test: Inhibition of recombinant human PAK1 (150 to end residues) using RRRLSFAEPG as substrate measured after 40 mins in presence of [gamma33P]ATP by radiometric scintillation counting analysis
[13] = target: CDK12/Cyclin K (Homo sapiens, UniProt Q9NYV4); test: Inhibition of recombinant full length human CDK12/cyclinK using RSRSRSRSRSRSR as substrate incubated for 120 mins in presence of [gamma-33ATP] by radiometric scintillation counting analysis; assay type: protein-complex assay
[14] = target: CDK18/Cyclin Y (Homo sapiens, UniProt Q07002+Q8ND76, T166M); test: Inhibition of recombinant full length human cyclinY/CDK18 T166M mutant using YRRAAVPPSPSLS as substrate measured after 40 mins in presence of [gamma33P]ATP by radiometric scintillation counting analysis; assay type: protein-complex assay
[15] = Inhibition of human PIP5K1
[16] = target: Serine/threonine-protein kinase 32C (Homo sapiens, UniProt Q86UX6); test: Inhibition of recombinant human full length STK32C using casein as substrate incubated for 120 mins in presence of [gamma33P]ATP by radiometric scintillation counting analysis
[17] = target: Protein kinase C iota type (Homo sapiens, UniProt P41743); test: Inhibition of recombinant full-length human PKCiota using ERMRPRKRQGSVRR as substrate incubated for 40 mins in presence of [gamma33P]ATP by radiometric scintillation counting analysis
[18] = target: SRSF protein kinase 3 (Homo sapiens, UniProt Q9UPE1); test: Inhibition of recombinant full-length human MSSK1 using ERMRPRKRQGSVRRRV as substrate measured after 40 mins in presence of [gamma33P]ATP by radiometric scintillation counting analysis
[19] = Inhibition of recombinant human EphB2 A848S/K918E double mutant (560 to end residues) using poly(Glu, Tyr) 4:1 as substrate after 40 mins in presence of [gamma-33ATP] by radiometric scintillation counting analysis
[20] = target: Hepatocyte growth factor receptor (Homo sapiens, UniProt P08581, Y1230D); test: Inhibition of recombinant human MET A1209G/V1290L/Y1248D triple mutant (974 to end residues) using KKKGQEEEYVFIE as substrate incubated for 40 mins in presence of [gamma-33ATP by radiometric scintillation counting analysis
[21] = target: Serine/threonine-protein kinase Sgk3 (Homo sapiens, UniProt Q96BR1); test: Inhibition of recombinant human SGK3 (119 to end residues) using GRPRTSSFAEGKK as substrate incubated for 40 mins in presence of [gamma33P]ATP by radiometric scintillation counting analysis
[22] = target: Serine/threonine-protein kinase Chk2 (Homo sapiens, UniProt O96017); test: Inhibition of recombinant human CHK2 (5 to end residues) using KKKVSRSGLYRSP as substrate incubated for 40 mins in presence of [gamma-33ATP] by radiometric scintillation counting analysis
[23] = Inhibition of recombinant human TIE2 Q939H/Q940H/Y897S triple mutant (771 to end residues) using EFPIYDFLPAKKK as substrate incubated for 40 mins in presence of [gamma33P]ATP by radiometric scintillation counting analysis
[24] = target: Tyrosine-protein kinase TXK (Homo sapiens, UniProt P42681); test: Inhibition of recombinant human Txk (256 to end residues) using GEEPLYWSFPAKK as substrate incubated for 40 mins in presence of [gamma33P]ATP by radiometric scintillation counting analysis
[25] = target: RAF proto-oncogene serine/threonine-protein kinase (Homo sapiens, UniProt P04049, Y340D/Y341D); test: Inhibition of recombinant human C-Raf Y340D/Y341D double mutant (306 to end residues) using poly(Glu, Tyr) 4:1 as substrate incubated 40 mins in presence of [gamma-33ATP] by radiometric scintillation counting analysis

Measured: IC50

Sequence of Protein kinase C iota type (P41743 whole entry): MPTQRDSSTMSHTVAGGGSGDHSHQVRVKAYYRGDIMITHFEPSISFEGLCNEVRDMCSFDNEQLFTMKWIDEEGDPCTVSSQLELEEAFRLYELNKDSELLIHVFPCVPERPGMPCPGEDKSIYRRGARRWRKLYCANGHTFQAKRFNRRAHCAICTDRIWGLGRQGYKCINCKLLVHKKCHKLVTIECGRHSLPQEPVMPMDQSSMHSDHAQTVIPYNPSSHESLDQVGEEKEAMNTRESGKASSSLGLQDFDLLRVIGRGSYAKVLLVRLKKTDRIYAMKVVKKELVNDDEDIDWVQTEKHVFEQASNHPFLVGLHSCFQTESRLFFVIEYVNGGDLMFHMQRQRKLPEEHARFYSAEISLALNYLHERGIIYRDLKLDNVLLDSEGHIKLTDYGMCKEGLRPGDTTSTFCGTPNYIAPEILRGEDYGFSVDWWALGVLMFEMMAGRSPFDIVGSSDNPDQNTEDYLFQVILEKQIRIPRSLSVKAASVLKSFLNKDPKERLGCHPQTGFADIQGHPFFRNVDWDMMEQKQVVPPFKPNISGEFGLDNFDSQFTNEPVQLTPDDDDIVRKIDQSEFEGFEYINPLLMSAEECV
Sequence of Inhibitor of nuclear factor kappa-B kinase subunit alpha (O15111 whole entry, the tested form may be a part): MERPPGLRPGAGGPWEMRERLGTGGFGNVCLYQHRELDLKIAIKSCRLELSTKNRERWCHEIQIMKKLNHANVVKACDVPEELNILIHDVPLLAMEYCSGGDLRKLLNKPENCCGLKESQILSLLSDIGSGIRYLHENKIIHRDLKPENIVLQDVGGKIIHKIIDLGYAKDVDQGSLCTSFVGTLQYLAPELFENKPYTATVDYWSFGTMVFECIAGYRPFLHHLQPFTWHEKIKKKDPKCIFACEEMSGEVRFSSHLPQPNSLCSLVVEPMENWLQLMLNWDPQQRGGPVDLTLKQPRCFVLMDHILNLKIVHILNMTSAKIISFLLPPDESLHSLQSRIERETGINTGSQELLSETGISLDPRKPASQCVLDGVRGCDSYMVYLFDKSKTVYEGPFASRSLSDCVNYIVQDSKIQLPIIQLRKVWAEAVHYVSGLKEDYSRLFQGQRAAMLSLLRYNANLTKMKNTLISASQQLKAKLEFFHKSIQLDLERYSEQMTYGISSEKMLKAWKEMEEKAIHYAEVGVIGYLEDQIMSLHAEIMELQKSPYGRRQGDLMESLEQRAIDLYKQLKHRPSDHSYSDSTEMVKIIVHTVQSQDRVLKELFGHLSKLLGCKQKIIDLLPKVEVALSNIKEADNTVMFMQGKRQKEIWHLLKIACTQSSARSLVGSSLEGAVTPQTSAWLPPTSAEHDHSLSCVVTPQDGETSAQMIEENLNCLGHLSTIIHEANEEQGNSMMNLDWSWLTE
Sequence of Focal adhesion kinase 1 (Q05397 whole entry, the tested form may be a part): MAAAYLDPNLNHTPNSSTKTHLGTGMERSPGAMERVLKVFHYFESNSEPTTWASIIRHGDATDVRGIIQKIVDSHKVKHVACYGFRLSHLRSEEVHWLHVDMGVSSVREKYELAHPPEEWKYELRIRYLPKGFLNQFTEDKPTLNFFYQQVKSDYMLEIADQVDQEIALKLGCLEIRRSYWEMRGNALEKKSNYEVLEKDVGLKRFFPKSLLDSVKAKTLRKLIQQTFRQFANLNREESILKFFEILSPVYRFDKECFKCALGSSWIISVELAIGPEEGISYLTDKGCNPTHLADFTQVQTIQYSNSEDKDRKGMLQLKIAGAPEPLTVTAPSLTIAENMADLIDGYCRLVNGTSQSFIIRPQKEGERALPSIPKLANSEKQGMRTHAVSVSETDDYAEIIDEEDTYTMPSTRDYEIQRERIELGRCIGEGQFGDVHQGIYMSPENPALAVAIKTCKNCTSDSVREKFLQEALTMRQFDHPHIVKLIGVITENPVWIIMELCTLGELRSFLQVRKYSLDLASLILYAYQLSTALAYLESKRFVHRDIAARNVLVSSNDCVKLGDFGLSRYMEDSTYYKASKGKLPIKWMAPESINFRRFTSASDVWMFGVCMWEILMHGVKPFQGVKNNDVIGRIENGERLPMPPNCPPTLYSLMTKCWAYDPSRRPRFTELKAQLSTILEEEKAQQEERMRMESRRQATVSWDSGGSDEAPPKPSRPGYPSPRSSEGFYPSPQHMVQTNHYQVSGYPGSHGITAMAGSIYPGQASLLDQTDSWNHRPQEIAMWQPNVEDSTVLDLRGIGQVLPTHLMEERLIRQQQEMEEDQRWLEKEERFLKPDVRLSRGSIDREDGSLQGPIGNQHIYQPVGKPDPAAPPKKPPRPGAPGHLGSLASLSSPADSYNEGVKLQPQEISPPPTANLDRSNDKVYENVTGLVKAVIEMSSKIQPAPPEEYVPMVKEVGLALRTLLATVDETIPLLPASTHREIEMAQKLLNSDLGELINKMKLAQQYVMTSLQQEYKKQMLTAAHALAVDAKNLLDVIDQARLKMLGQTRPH
Sequence of Serine/threonine-protein kinase Chk2 (O96017 whole entry): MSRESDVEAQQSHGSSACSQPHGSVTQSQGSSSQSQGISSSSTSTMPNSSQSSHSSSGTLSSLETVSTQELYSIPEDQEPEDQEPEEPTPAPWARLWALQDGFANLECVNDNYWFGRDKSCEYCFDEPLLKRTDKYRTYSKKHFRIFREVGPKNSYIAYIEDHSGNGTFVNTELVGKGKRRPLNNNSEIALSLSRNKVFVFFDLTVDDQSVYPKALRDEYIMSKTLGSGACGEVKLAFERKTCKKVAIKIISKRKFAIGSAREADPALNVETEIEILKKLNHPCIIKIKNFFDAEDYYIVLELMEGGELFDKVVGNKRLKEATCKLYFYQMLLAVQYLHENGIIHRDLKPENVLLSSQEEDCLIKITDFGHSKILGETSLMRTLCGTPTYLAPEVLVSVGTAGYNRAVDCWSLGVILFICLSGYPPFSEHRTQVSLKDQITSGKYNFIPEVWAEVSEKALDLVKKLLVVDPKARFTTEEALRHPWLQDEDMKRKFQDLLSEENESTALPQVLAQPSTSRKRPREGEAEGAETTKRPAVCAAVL
Sequence of Hepatocyte growth factor receptor (P08581 25-1390 Y1230D limits assumed): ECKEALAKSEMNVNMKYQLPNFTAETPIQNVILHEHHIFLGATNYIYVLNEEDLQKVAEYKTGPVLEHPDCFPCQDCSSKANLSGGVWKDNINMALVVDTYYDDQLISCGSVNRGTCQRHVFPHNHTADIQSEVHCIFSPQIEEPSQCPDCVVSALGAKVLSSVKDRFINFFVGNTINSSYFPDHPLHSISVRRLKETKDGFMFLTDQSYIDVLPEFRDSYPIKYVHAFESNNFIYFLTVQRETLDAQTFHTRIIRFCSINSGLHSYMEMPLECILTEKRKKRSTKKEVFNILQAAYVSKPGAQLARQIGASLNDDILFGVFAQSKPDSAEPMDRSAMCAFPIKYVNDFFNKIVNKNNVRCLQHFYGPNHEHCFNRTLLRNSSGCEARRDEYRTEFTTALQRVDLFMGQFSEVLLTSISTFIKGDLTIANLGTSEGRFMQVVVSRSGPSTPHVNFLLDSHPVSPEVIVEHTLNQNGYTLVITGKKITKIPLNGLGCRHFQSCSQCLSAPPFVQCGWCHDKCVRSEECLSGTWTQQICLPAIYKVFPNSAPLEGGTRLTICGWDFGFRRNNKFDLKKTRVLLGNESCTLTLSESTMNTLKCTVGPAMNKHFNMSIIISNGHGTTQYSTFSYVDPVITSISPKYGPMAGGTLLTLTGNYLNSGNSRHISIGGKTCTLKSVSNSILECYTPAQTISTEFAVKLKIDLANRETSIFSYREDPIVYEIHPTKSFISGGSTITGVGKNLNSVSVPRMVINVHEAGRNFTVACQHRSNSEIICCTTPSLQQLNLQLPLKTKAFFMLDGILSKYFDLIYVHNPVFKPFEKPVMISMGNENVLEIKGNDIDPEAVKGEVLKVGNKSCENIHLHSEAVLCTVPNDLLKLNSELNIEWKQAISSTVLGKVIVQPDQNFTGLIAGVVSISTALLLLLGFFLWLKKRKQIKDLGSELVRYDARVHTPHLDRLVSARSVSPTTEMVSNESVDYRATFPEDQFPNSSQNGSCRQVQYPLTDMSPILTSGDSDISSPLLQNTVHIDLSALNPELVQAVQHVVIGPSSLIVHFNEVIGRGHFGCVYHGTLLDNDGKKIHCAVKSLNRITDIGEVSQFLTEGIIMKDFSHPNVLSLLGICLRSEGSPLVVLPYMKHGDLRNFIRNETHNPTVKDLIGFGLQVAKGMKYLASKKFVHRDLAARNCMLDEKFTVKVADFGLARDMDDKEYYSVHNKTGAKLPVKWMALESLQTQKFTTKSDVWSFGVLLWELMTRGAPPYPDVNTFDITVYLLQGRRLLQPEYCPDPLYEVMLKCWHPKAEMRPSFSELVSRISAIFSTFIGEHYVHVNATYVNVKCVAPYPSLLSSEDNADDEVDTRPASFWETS
Sequence of Receptor-interacting serine/threonine-protein kinase 2 (O43353 whole entry, the tested form may be a part): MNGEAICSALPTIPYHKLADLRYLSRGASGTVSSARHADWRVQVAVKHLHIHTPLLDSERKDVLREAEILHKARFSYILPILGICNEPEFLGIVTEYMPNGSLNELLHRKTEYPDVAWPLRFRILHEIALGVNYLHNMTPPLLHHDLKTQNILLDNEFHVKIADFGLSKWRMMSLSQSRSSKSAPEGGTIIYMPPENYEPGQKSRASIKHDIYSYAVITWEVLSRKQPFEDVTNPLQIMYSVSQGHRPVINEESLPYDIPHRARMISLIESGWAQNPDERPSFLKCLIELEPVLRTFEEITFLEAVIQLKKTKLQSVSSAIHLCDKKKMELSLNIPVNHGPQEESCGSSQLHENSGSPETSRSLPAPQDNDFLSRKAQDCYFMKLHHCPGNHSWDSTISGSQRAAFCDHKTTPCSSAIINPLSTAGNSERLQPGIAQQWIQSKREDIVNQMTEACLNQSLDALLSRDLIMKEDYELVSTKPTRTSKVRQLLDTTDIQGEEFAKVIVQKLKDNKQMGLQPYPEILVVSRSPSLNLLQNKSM

CN(C)c1ccc(C(=O)Nc2cccc(NC(=O)COc3ccc4c(=O)ccoc4c3)c2)cc1
> 10 µM: all assays above
